Results on 52 compounds are retold here after patent publication US8546579B2, “Bicycloheteroaryl compounds as P2X7 modulators and uses thereof” (Evotec (US) Inc., priority 2006, dated 2013).

The target in one test is T1, P2X7 receptor (Homo sapiens, UniProt Q99572).
T1 construct: host or cells: THP-1 cells differentiated with LPS and IFN-γ
T1 sequence (Q99572 1-595): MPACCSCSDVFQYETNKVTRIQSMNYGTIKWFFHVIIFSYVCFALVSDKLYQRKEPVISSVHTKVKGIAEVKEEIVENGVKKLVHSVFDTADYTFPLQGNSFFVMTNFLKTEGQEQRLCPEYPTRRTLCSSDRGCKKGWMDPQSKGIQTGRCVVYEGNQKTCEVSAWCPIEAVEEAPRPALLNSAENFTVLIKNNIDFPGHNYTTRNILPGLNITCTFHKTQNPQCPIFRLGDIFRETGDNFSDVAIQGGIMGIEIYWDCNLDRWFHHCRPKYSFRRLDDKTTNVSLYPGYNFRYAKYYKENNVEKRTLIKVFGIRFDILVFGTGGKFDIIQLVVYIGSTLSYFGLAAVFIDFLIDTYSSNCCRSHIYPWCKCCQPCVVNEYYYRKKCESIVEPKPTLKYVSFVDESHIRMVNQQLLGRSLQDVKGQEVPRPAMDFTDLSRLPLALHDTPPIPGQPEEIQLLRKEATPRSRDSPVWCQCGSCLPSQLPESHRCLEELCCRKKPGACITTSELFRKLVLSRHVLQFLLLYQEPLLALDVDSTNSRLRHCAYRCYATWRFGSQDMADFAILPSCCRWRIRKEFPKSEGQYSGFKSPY
As to the kind of experiment: IL-1β release assay in differentiated THP-1 cells stimulated with BzATP (Example 9). The format is cell-based. As to conditions: 0.1 μM compound; differentiated THP-1 cells, BzATP 250 uM; '*' class symbols; read-out: IL-1β % Inhib. (asterisk classes, 0.1 μM). In a few lines: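 THP-1 cells differentiated 16 h with LPS and IFN-γ (100 ng/mL each), re-primed 2 h with LPS, then compound-pretreated 30 min before 250 uM BzATP for 45 min. Supernatant IL-1β quantified by ELISA; background-adjusted percent inhibition fitted to four-parameter logistic for IC50.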
With `CCOc1ccc(C(=O)Nc2cccc3c(=O)n(CCN(C)C)ccc23)cc1` [Compound 1146], the inhibition at 0.1 µM was 0 to 25%.

As for `COc1ccccc1CCC(=O)Nc1cccc2c(=O)n(CCN(C)C)ccc12` [Compound 1149], the inhibition at 0.1 µM fell in the range of 0 to 25%.

Still in this test, the particulars now being: 0.3 μM compound; differentiated THP-1 cells, BzATP 250 uM; '+' class symbols; read-out: IL-1β % Inhib. @ 0.3 μM.
On to `Cc1ccc(CC(=O)Nc2cccc3c(=O)n(CC4CCOCC4)ccc23)cc1` [Compound 1107], for which the inhibition at 0.3 µM lay in the range of 0 to 25%.

On to `O=C(CCCc1ccccc1)Nc1cccc2c(=O)n(CC3CCOCC3)ccc12` [Compound 1108], for which the inhibition at 0.3 µM was in the range of 0 to 25%.

With `O=C(Nc1cccc2c(=O)n(CC3CCOCC3)ccc12)c1cc2ccccc2o1` [Compound 1109], the inhibition at 0.3 µM is 0 to 25%.

Take `O=C(Cc1ccc2c(c1)OCO2)Nc1cccc2c(=O)n(CC3CCOCC3)ccc12` [Compound 1110]: the inhibition at 0.3 µM was in the range of 0 to 25%.

`COc1cc(CC(=O)Nc2cccc3c(=O)n(CC4CCOCC4)ccc23)cc(OC)c1` [Compound 1111]: the inhibition at 0.3 µM was 0 to 25%.

As for `COc1c(C)cc(C(=O)Nc2cccc3c(=O)n(CC4CCOCC4)ccc23)cc1C` [Compound 1112], the inhibition at 0.3 µM fell in the range of 0 to 25%.

`Cc1ccc(C(=O)Nc2cccc3c(=O)n(CC4CCOCC4)ccc23)cc1Cl` [Compound 1113]: the inhibition at 0.3 µM was 0 to 25%.

Take `Cc1cc(Cl)ccc1C(=O)Nc1cccc2c(=O)n(CC3CCOCC3)ccc12` [Compound 1114]: the inhibition at 0.3 µM lay in the range of 0 to 25%.

Take `O=C(CC1C[C@@H]2CC[C@H]1C2)Nc1cccc2c(=O)n(CC3CCOCC3)ccc12` (stereo partly shown) [Compound 1115]: the inhibition at 0.3 µM was 26 to 50%.

Take `O=C(Nc1cccc2c(=O)n(CC3CCOCC3)ccc12)[C@]12C[C@@H]3CC1C[C@@H](C3)C2` [Compound 1116]: the inhibition at 0.3 µM was 0 to 25%.

Turning to `O=C(Nc1cccc2c(=O)n(CC3CCOCC3)ccc12)c1cccc2c1OCCO2` [Compound 1117], the inhibition at 0.3 µM is 0 to 25%.

On to `O=C(Nc1cccc2c(=O)n(CC3CCOCC3)ccc12)c1ccc2c(c1)OCCCO2` [Compound 1118], for which the inhibition at 0.3 µM lay in the range of 0 to 25%.

For `O=C(Cc1csc2ccccc12)Nc1cccc2c(=O)n(CC3CCOCC3)ccc12` [Compound 1119], the inhibition at 0.3 µM lay within 0 to 25%.

Turning to `Cc1c(Cl)cccc1C(=O)Nc1cccc2c(=O)n(CC3CCOCC3)ccc12` [Compound 1120], the inhibition at 0.3 µM is 0 to 25%.

Consider `Cc1cc(C)cc(CC(=O)Nc2cccc3c(=O)n(CC4CCOCC4)ccc23)c1` [Compound 1121], for which the inhibition at 0.3 µM fell in the range of 0 to 25%.

As to `O=C(Nc1cccc2c(=O)n(CC3CCOCC3)ccc12)C1C[C@@H]2CC[C@H]1C2` (stereo partly shown) [Compound 1122], the inhibition at 0.3 µM lay within 0 to 25%.

On to `COc1ccc(CC(=O)Nc2cccc3c(=O)n(CC4CCOCC4)ccc23)c(OC)c1` [Compound 1123], for which the inhibition at 0.3 µM was 0 to 25%.

For `Cc1cc(C(=O)Nc2cccc3c(=O)n(CC4CCOCC4)ccc23)ccc1F` [Compound 1124], the inhibition at 0.3 µM fell in the range of 0 to 25%.

With `O=C(CCc1ccc(Cl)cc1)Nc1cccc2c(=O)n(CC3CCOCC3)ccc12` [Compound 1125], the inhibition at 0.3 µM lay in the range of 0 to 25%.

As to `CCOc1ccccc1CC(=O)Nc1cccc2c(=O)n(CC3CCOCC3)ccc12` [Compound 1126], the inhibition at 0.3 µM lay within 0 to 25%.

For the compound `COc1ccc(CC(=O)Nc2cccc3c(=O)n(CC4CCOCC4)ccc23)cc1C` [Compound 1127], the inhibition at 0.3 µM lay in the range of 0 to 25%.

With `Cc1ccc(Cl)c(C(=O)Nc2cccc3c(=O)n(CC4CCOCC4)ccc23)c1` [Compound 1128], the inhibition at 0.3 µM is 0 to 25%.

On to `Cc1ccc(Cl)cc1C(=O)Nc1cccc2c(=O)n(CC3CCOCC3)ccc12` [Compound 1129], for which the inhibition at 0.3 µM was 0 to 25%.

As to `Cc1cccc(CCC(=O)Nc2cccc3c(=O)n(CC4CCOCC4)ccc23)c1` [Compound 1130], the inhibition at 0.3 µM was in the range of 0 to 25%.

For `O=C(Nc1cccc2c(=O)n(CC3CCOCC3)ccc12)c1cc2cc(Cl)ccc2o1` [Compound 1131], the inhibition at 0.3 µM was 0 to 25%.

For `Cc1cccc(C(=O)Nc2cccc3c(=O)n(CC4CCOCC4)ccc23)c1Cl` [Compound 1132], the inhibition at 0.3 µM is 0 to 25%.

Consider `COc1ccc(C(=O)Nc2cccc3c(=O)n(CC4CCOCC4)ccc23)cc1C` [Compound 1133], for which the inhibition at 0.3 µM was 0 to 25%.

On to `Cc1ccc(CCC(=O)Nc2cccc3c(=O)n(CC4CCOCC4)ccc23)c(C)c1` [Compound 1134], for which the inhibition at 0.3 µM lay within 0 to 25%.

For the compound `O=C(CCc1cccc(Cl)c1)Nc1cccc2c(=O)n(CC3CCOCC3)ccc12` [Compound 1135], the inhibition at 0.3 µM is 0 to 25%.

Regarding `CC(C)Cc1ccc(C(=O)Nc2cccc3c(=O)n(CC4CCOCC4)ccc23)cc1` [Compound 1136], the inhibition at 0.3 µM lay in the range of 0 to 25%.

As for `CN(C)CCn1ccc2c(NC(=O)c3ccccc3Cl)cccc2c1=O` [Compound 1137], the inhibition at 0.3 µM lay within 0 to 25%.

Turning to `CN(C)CCn1ccc2c(NC(=O)c3ccc(Cl)cc3Cl)cccc2c1=O` [Compound 1138], the inhibition at 0.3 µM lay in the range of 0 to 25%.

Turning to `CN(C)CCn1ccc2c(NC(=O)c3cc(Cl)ccc3Cl)cccc2c1=O` [Compound 1139], the inhibition at 0.3 µM fell in the range of 0 to 25%.

`Cc1cccc(C(=O)Nc2cccc3c(=O)n(CCN(C)C)ccc23)c1C` [Compound 1140]: the inhibition at 0.3 µM fell in the range of 0 to 25%.

Consider `Cc1ccc(C(=O)Nc2cccc3c(=O)n(CCN(C)C)ccc23)c(C)c1` [Compound 1141], for which the inhibition at 0.3 µM lay within 0 to 25%.

For `Cc1ccc(C)c(C(=O)Nc2cccc3c(=O)n(CCN(C)C)ccc23)c1` [Compound 1142], the inhibition at 0.3 µM lay within 0 to 25%.

With `CN(C)CCn1ccc2c(NC(=O)c3cc(Cl)cc(Cl)c3)cccc2c1=O` [Compound 1143], the inhibition at 0.3 µM is 0 to 25%.

For `Cc1cccc(C(=O)Nc2cccc3c(=O)n(CCN(C)C)ccc23)c1` [Compound 1145], the inhibition at 0.3 µM lay within 0 to 25%.

Regarding `CN(C)CCn1ccc2c(NC(=O)c3ccc(C(C)(C)C)cc3)cccc2c1=O` [Compound 1147], the inhibition at 0.3 µM is 0 to 25%.

Turning to `CC(C(=O)Nc1cccc2c(=O)n(CCN(C)C)ccc12)c1ccccc1` (stereo not shown) [Compound 1148], the inhibition at 0.3 µM was 0 to 25%.

In the case of `COc1ccc(CCC(=O)Nc2cccc3c(=O)n(CCN(C)C)ccc23)cc1` [Compound 1150], the inhibition at 0.3 µM lay within 0 to 25%.

For the compound `CN(C)CCn1ccc2c(NC(=O)c3cccc4ccccc34)cccc2c1=O` [Compound 1151], the inhibition at 0.3 µM is 0 to 25%.

For `CN(C)CCn1ccc2c(NC(=O)Cc3cccc4ccccc34)cccc2c1=O` [Compound 1152], the inhibition at 0.3 µM fell in the range of 0 to 25%.

On to `CN(C)CCn1ccc2c(NC(=O)c3ccc4ccccc4c3)cccc2c1=O` [Compound 1153], for which the inhibition at 0.3 µM was in the range of 0 to 25%.

Regarding `CN(C)CCn1ccc2c(NC(=O)Cc3ccccc3F)cccc2c1=O` [Compound 1154], the inhibition at 0.3 µM was 0 to 25%.

Take `CN(C)CCn1ccc2c(NC(=O)Cc3ccccc3Cl)cccc2c1=O` [Compound 1155]: the inhibition at 0.3 µM lay in the range of 0 to 25%.

With `COc1ccc(OC)c(CC(=O)Nc2cccc3c(=O)n(CCN(C)C)ccc23)c1` [Compound 1156], the inhibition at 0.3 µM was in the range of 0 to 25%.

Take `Cc1ccccc1CC(=O)Nc1cccc2c(=O)n(CCN(C)C)ccc12` [Compound 1157]: the inhibition at 0.3 µM was 0 to 25%.

Take `COc1ccc(CC(=O)Nc2cccc3c(=O)n(CCN(C)C)ccc23)cc1OC` [Compound 1158]: the inhibition at 0.3 µM was in the range of 0 to 25%.

Regarding `Cc1cccc(CC(=O)Nc2cccc3c(=O)n(CCN(C)C)ccc23)c1` [Compound 1159], the inhibition at 0.3 µM was 0 to 25%.
